Laboratory results reported in patent US20080280879A1, “SUBSTITUTED HETEROCYCLIC DERIVATIVES AND THEIR PHARMACEUTICAL USE AND COMPOSITIONS” (priority 2007, published 2008).
Converted amounts (≈) assume the structure as drawn.

Assays:
Assay type in all cases: cell-based, Staphylococcus aureus
Staph aureus 2812 = assay: MIC, microtiter broth dilution (CLSI M7-A7), Assay 1, Table 12 column E, no serum
In short: (§1)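 Staphylococcus aureus susceptibility is measured by CLSI M7-A7 broth microdilution in microtiter trays. For serum testing, bacteria are inoculated into Mueller-Hinton Broth containing 50% pooled inactivated human serum. The MIC in μg/ml is the lowest concentration preventing visible growth.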

Staph aureus 1031 [1] = assay: MIC, microtiter broth dilution (CLSI M7-A7), Assay 2, Table 12 column F, no serum; settings: Staph aureus 1031, Assay 2, no serum
Protocol: (§2) The assays described herein include a panel of bacterial isolates of Staphylococcus aureus. Assay 1 comprises the strains noted in Columns A through E, and Assay 2 comprises the strains noted in Columns F through H. The assays are performed in microtiter trays according to Methods for Dilution Antimicrobial Susceptibility Tests for Bacteria that Grow Aerobically; Approved Standard-7th edition (M7-A7) and interpreted according to the Performance Standards for Antimicrobial Susceptibility Testing; 16th Informational Supplement (M100-S16) published by Clinical Laboratory Standards Institute (CLSI). The antibacterial activity is presented in the form of a minimum inhibitory concentration (MIC) value in μg/ml format. The MIC value represents the lowest concentration of drug measured which prevented macroscopically visible growth under the conditions and specific doses tested. The compounds were initially dissolved in DMSO as 30 mM stocks and diluted accordingly to adjust to a concentration of 10 mg/ml or the compounds were dissolved in DMSO at a concentration of 10 mg/ml. For assessment of activity in the presence of human serum, S. aureus 1146 and S. aureus 1031 were inoculated into Mueller-Hinton Broth with 50% pooled inactivated human serum. In some cases, compounds were tested more than once in a particular assay. Where noted, the MIC value shown in Table 12 represents the geometric mean of the data from multiple runs.
(§3) It should be understood that the data in columns A-H represents MIC data in μg/ml and the notation “<=” means ‘less than or equal to’.

Staph aureus 2811 = assay: MIC, microtiter broth dilution (CLSI M7-A7), Assay 1, Table 12 column D, no serum; settings: Staph aureus 2811, Assay 1, no serum
In short: as §1

Staph aureus 1095 MRSA = assay: MIC, microtiter broth dilution (CLSI M7-A7), Assay 1, Table 12 column A, no serum; settings: Assay 1, no serum
In short: as §1

Staph aureus 1146 [2] = assay: MIC, microtiter broth dilution (CLSI M7-A7), Assay 1, Table 12 column B, no serum; settings: Staph aureus 1146, Assay 1, no serum
In short: as §1

Staph aureus 1146 [3] = assay: MIC in Mueller-Hinton Broth with 50% pooled inactivated human serum, Assay 1, Table 12; settings: Staph aureus 1146, Assay 1, 50% human serum
In short: as §1

Staph aureus 1031 [4] = assay: MIC in Mueller-Hinton Broth with 50% pooled inactivated human serum, Assay 2, Table 12 column G
Protocol: as §2, §3

Staph aureus 2810 = assay: MIC, microtiter broth dilution (CLSI M7-A7), Assay 2, Table 12 column H, no serum; settings: Staph aureus 2810, Assay 2, no serum
Protocol: as §2, §3

SMILES	MIC, column E (Staph aureus 2812; Staph aureus 2812, Assay 1, no serum)	MIC, column F (Staph aureus 1031 [1])	MIC, column D (Staph aureus 2811)	MIC, column A (Staph aureus 1095 MRSA)	MIC, column B (Staph aureus 1146 [2])	MIC, column C (Staph aureus 1146 [3])	MIC (Staph aureus 1031 [4]; Staphylococcus aureus, 1031, Staph aureus 1031, Assay 2, 50% human serum)	MIC, column H (Staph aureus 2810)	MIC (Staph aureus 2812; Staphylococcus aureus, 2812, Staph aureus 2812, Assay 1, no serum)	MIC (Staph aureus 1095 MRSA; Staphylococcus aureus, MRSA)	MIC, column G (Staph aureus 1031 [4]; Staph aureus 1031, Assay 2, 50% human serum)
COc1ccc2nccc(C(O)CC[C@@H]3CCN(C4CC(c5ccccc5)C4)C[C@@H]3C(=O)O)c2c1 (single isomer, unassigned) [Example 4]	1 µg/mL (≈ 2.11 µM)	0.5 µg/mL (≈ 1.05 µM)	1 µg/mL (≈ 2.11 µM)	2 µg/mL (≈ 4.21 µM)	1 µg/mL (≈ 2.11 µM)	4 µg/mL (≈ 8.43 µM)	4 µg/mL (≈ 8.43 µM)	0.5 µg/mL (≈ 1.05 µM)	–	–	–
COc1ccc2nccc(C(O)CC[C@@H]3CCN(C4CC(c5ccccc5)C4)C[C@@H]3C(=O)O)c2c1 (single isomer, unassigned) [Example 2]	–	0.125 µg/mL (≈ 0.263 µM)	<=.0884 μg/ml	–	<=.0625 μg/ml	0.4629 µg/mL (≈ 0.975 µM)	–	<=.0625 μg/ml	0.158 µg/mL (≈ 0.332 µM)	0.25 µg/mL (≈ 0.527 µM)	0.5 µg/mL (≈ 1.05 µM)
